Consider 44 compounds from patent publication US20240374573A1, “IMIDAZOLE CONTAINING COMPOUNDS, DERIVATIVES THEREFORE, AND USES THEREOF” (AglaeaPharma Inc., priority 2023, published 2024).

Test [1] has as its target T1, α2AAR (Homo sapiens, UniProt P08913).
T1 construct: host or cells: HEK293 (membranes)
T1 sequence (P08913 1-465): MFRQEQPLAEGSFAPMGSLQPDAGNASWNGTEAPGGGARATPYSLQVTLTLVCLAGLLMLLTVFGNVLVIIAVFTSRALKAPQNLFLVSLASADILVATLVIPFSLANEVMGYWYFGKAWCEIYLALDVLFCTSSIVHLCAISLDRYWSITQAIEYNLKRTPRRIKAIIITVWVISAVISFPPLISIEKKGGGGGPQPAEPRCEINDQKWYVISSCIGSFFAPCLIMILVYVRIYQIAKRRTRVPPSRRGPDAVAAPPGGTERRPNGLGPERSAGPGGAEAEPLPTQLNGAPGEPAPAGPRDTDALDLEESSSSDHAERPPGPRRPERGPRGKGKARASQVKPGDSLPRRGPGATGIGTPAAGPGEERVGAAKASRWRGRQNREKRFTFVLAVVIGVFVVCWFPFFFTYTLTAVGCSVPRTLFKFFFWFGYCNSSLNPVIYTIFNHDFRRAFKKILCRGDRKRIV
The experiment in a line: α2AAR binding assay ([3H]-RX 821002 radioligand). The conditions noted are these: [3H]-RX 821002 0.5 nM, HEK293 membranes; read-out: α2A affinity (Ki).

Test [2] concerns the target T2, α2AAR (α2A-adrenergic receptor) (Homo sapiens, UniProt P08913).
T2 construct: expressed in transfected cells; host or cells: HEK293
T2 sequence (P08913 1-465): T1 sequence (P08913 1-465)
The test can be described thus: α2AAR FLIPR assay (agonist activity). Type of test: cell-based. The conditions noted are these: FLIPR, α2AAR cell line hosted in HEK293 cells; read-out: α2A agonist activity (EC50). In short, it runs like this: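 HEK293 cells expressing α2AAR loaded with Fluo-4 Direct plus probenecid for 50 min at 37° C and 10 min at room temperature, then treated with serially diluted compounds.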

The term Ki denotes the dissociation constant of the complex between target and ligand, obtained from inhibition or displacement. Usually EC50 stands for the concentration that produces a half-maximal response. As to `Cc1cccc(C(c2c[nH]cn2)c2cccc(C(=O)NOC3CCOCC3)n2)c1C` (stereo not shown) [compound 152], the inhibition constant Ki in test [1] was < 10 nM. In addition, in test [2], the EC50 fell in the range of 10 to 50 nM.

On to `Cc1cccc(C(c2cccc(NC(=O)CC3CCCO3)c2)c2c[nH]cn2)c1C` (stereo not shown) [compound 153], for which, in test [1], the inhibition constant (Ki) lay within 10 to 50 nM. The EC50 in test [2] lay in the range of 10 to 50 nM.

As for `Cc1cccc(C(Cc2ccc(NC(=O)C3CCOCC3)cc2)c2c[nH]cn2)c1C` (stereo not shown) [compound 157], the Ki in test [1] was < 10 nM. Besides, in test [2], the EC50 is < 10 nM.

`Cc1cn(-c2cccc(C(c3c[nH]cn3)c3cccc(C)c3C)c2)nn1` (stereo not shown) [compound 160]: the inhibition constant Ki in test [1] lay within 10 to 50 nM. Also, the concentration for a half-maximal effect (EC50) in test [2] fell in the range of 10 to 50 nM.

Consider `Cc1cccc(C(c2cccc(NC(=S)CC3CCOCC3)c2)c2c[nH]cn2)c1C` (stereo not shown) [compound 161], for which the inhibition constant (Ki) in test [1] is < 10 nM. In test [2], the concentration giving a half-maximal response (EC50) was 10 to 50 nM.

Consider `Cc1cccc(C(c2cccc(S(=O)(=O)NC3CCOCC3)c2)c2c[nH]cn2)c1C` (stereo not shown) [compound 162], for which the Ki in test [1] is < 10 nM. Moreover, the EC50 in test [2] is 10 to 50 nM.

Consider `Cc1cccc(C(c2cccc(-c3cnnn3C)c2)c2c[nH]cn2)c1C` (stereo not shown) [compound 164], for which the inhibitory constant (Ki) in test [1] lay within 10 to 50 nM. Also, in test [2], the concentration giving a half-maximal response (EC50) was 10 to 50 nM.

In the case of `Cc1cccc(C(c2cccc(NS(=O)(=O)C[C@H]3CCCO3)c2)c2c[nH]cn2)c1C` (stereo partly shown) [compound 166], in test [1], the inhibition constant (Ki) was 10 to 50 nM. In addition, in test [2], the EC50 was 10 to 50 nM.

Regarding `COP(=O)(CC1CCOCC1)Nc1cccc(C(c2c[nH]cn2)c2cccc(C)c2C)c1` (stereo not shown) [compound 167], the Ki in test [1] lay in the range of 10 to 50 nM. The EC50 in test [2] lay within 10 to 50 nM.

In the case of `Cc1cccc(C(Cc2ccc(NC(=O)CC3CCCCO3)cc2)c2c[nH]cn2)c1C` (stereo not shown) [compound 169], the Ki in test [1] is < 10 nM. Further, in test [2], the EC50 was < 10 nM.

As to `Cc1cccc(C(Cc2ccc(NC(=O)CC3CCOC3)cc2)c2c[nH]cn2)c1C` (stereo not shown) [compound 171], the Ki in test [1] was < 10 nM. Further, the EC50 in test [2] is < 10 nM.

As to `Cc1cccc(C(Cc2ccc(C(C)C(=O)O)cc2)c2c[nH]cn2)c1C` (stereo not shown) [compound 174], the Ki in test [1] fell in the range of 50 to 250 nM. The EC50 in test [2] fell in the range of 10 to 50 nM.

In the case of `Cc1cccc(C(Cc2ccc(C(=O)O)cc2)c2c[nH]cn2)c1C` (stereo not shown) [compound 175], in test [1], the Ki lay within 250 to 1000 nM. Besides, the EC50 in test [2] was 10 to 50 nM.

As to `Cc1cccc(C(Cc2ccc(NC(=O)CC3CCCO3)cc2)c2c[nH]cn2)c1C` (stereo not shown) [compound 176], in test [1], the inhibition constant (Ki) is < 10 nM. For the same compound, in test [2], the EC50 was < 10 nM.

On to `Cc1cccc(C(Cc2ccc(C(=O)NC3CCOCC3)cc2)c2c[nH]cn2)c1C` (stereo not shown) [compound 177], for which, in test [1], the inhibition constant (Ki) was 10 to 50 nM. The half-maximal effective concentration (EC50) in test [2] was < 10 nM.

As to `Cc1cccc(C(Cc2ccc(S(=O)(=O)NC3COC3)cc2)c2c[nH]cn2)c1C` (stereo not shown) [compound 179], the inhibitory constant (Ki) in test [1] was < 10 nM. Besides, in test [2], the EC50 was < 10 nM.

With `Cc1cccc(C(c2cccc(NC(=O)N3CCCCC3)c2)c2c[nH]cn2)c1C` (stereo not shown) [compound 180], in test [1], the inhibition constant (Ki) lay within 10 to 50 nM. Also, the half-maximal effective concentration (EC50) in test [2] is 10 to 50 nM.

For the compound `Cc1cccc(C(Cc2ccc(NC(=O)CC3CCCCC3)cc2)c2c[nH]cn2)c1C` (stereo not shown) [compound 181], in test [1], the Ki was < 10 nM. Further, the half-maximal effective concentration (EC50) in test [2] fell in the range of 50 to 250 nM.

As to `CNC(=O)c1ccc(CC(c2c[nH]cn2)c2cccc(C)c2C)cc1F` (stereo not shown) [compound 192], the Ki in test [1] was < 10 nM. For the same compound, in test [2], the EC50 was in the range of 10 to 50 nM.

For `CC(=O)Nc1ccc(CC(c2c[nH]cn2)c2cccc(C)c2C)cc1F` (stereo not shown) [compound 193], the Ki in test [1] is < 10 nM. The EC50 in test [2] was 10 to 50 nM.

Turning to `COC(=O)Nc1ccc(CC(c2c[nH]cn2)c2cccc(C)c2C)cc1` (stereo not shown) [compound 194], in test [1], the Ki is < 10 nM. In addition, the half-maximal effective concentration (EC50) in test [2] lay within 10 to 50 nM.

As for `COCC(=O)Nc1ccc(CC(c2c[nH]cn2)c2cccc(C)c2C)cc1` (stereo not shown) [compound 195], the inhibition constant (Ki) in test [1] is < 10 nM. Moreover, the EC50 in test [2] was in the range of 10 to 50 nM.

For `Cc1cccc(C(Cc2ccc3c(c2)OCCO3)c2c[nH]cn2)c1C` (stereo not shown) [compound 196], the inhibitory constant (Ki) in test [1] is < 10 nM. Moreover, the EC50 in test [2] fell in the range of 50 to 250 nM.

Take `Cc1cccc(C(Cc2ccc(C(=O)O)c(F)c2)c2c[nH]cn2)c1C` (stereo not shown) [compound 197]: in test [1], the inhibition constant (Ki) fell in the range of 50 to 250 nM. The EC50 in test [2] lay in the range of 10 to 50 nM.

In the case of `Cc1cccc(C(Cc2ccc(NC(=O)NC3CCOC3)cc2)c2c[nH]cn2)c1C` (stereo not shown) [compound 198], in test [1], the inhibitory constant (Ki) was < 10 nM. In test [2], the EC50 lay within 10 to 50 nM.

As for `Cc1cccc(C(c2c[nH]cn2)c2cccc(-c3cnnn3C)c2F)c1C` (stereo not shown) [compound 201], in test [1], the inhibitory constant (Ki) is < 10 nM. The EC50 in test [2] fell in the range of 10 to 50 nM.

Consider `CNc1ccc(CC(c2c[nH]cn2)c2cccc(C)c2C)cc1` (stereo not shown) [compound 203], for which the inhibition constant Ki in test [1] was < 10 nM. The EC50 in test [2] lay within 50 to 250 nM.

Regarding `Cc1cccc(C(Cc2ccc(C(=O)NS(=O)(=O)c3ccccc3)cc2)c2c[nH]cn2)c1C` (stereo not shown) [compound 204], in test [1], the Ki was in the range of 50 to 250 nM. The EC50 in test [2] is 50 to 250 nM.

Turning to `Cc1cccc(C(Cc2ccc(CC(=O)O)cc2)c2c[nH]cn2)c1C` (stereo not shown) [compound 206], the inhibition constant Ki in test [1] was 50 to 250 nM. Further, the EC50 in test [2] lay in the range of 50 to 250 nM.

On to `Cc1cccc(C(Cc2ccc(NC3CCOCC3)cc2)c2c[nH]cn2)c1C` (stereo not shown) [compound 207], for which the inhibition constant Ki in test [1] is < 10 nM. For the same compound, the EC50 in test [2] was 10 to 50 nM.

As for `Cc1cccc(C(Cc2ccc(-c3cnnn3C)cc2)c2c[nH]cn2)c1C` (stereo not shown) [compound 209], the Ki in test [1] was < 10 nM. The EC50 in test [2] is 10 to 50 nM.

For the compound `Cc1cccc(C(Cc2ccc(-c3nnn[nH]3)cc2)c2c[nH]cn2)c1C` (stereo not shown) [compound 210], in test [1], the Ki lay in the range of 10 to 50 nM. Further, the EC50 in test [2] was in the range of 50 to 250 nM.

As for `Cc1cn(-c2ccc(CC(c3c[nH]cn3)c3cccc(C)c3C)cc2)nn1` (stereo not shown) [compound 211], the Ki in test [1] was < 10 nM. Further, in test [2], the EC50 fell in the range of 10 to 50 nM.

Take `Cc1cccc(C(Cc2ccc(NC(=S)C3CCOCC3)cc2)c2c[nH]cn2)c1C` (stereo not shown) [compound 212]: in test [1], the inhibitory constant (Ki) is < 10 nM. The EC50 in test [2] lay in the range of 10 to 50 nM.

`Cc1cccc(C(Cc2ccc(C(=O)O)c(O)c2)c2c[nH]cn2)c1C` (stereo not shown) [compound 218]: in test [1], the inhibitory constant (Ki) is 50 to 250 nM. Besides, in test [2], the 50% effective concentration (EC50) fell in the range of 10 to 50 nM.

`Cc1cccc(C(c2cccc(-c3cnnn3C3CCOCC3)c2)c2c[nH]cn2)c1C` (stereo not shown) [compound 220]: in test [1], the inhibition constant Ki is < 10 nM. In addition, the EC50 in test [2] is < 10 nM.

As for `Cc1cccc(C(Cc2ccc(S(=O)(=O)O)cc2)c2c[nH]cn2)c1C` (stereo not shown) [compound 221], the Ki in test [1] was 10 to 50 nM. For the same compound, the EC50 in test [2] was in the range of 10 to 50 nM.

Consider `CC(=O)N(C)c1ccc(CC(c2c[nH]cn2)c2cccc(C)c2C)cc1` (stereo not shown) [compound 222], for which the inhibitory constant (Ki) in test [1] is 10 to 50 nM. The EC50 in test [2] lay in the range of 10 to 50 nM.

As for `Cc1cccc(C(Cc2ccc(O)c(O)c2)c2c[nH]cn2)c1C` (stereo not shown) [compound 223], the Ki in test [1] was < 10 nM. In addition, in test [2], the EC50 lay within 10 to 50 nM.

Regarding `COc1ccc(CC(c2c[nH]cn2)c2cccc(C)c2C)cc1OC` (stereo not shown) [compound 224], in test [1], the Ki is < 10 nM. The 50% effective concentration (EC50) in test [2] is < 10 nM.

With `Cc1cccc(C(Cc2ccc3c(c2)OCC(=O)N3)c2c[nH]cn2)c1C` (stereo not shown) [compound 225], the inhibition constant (Ki) in test [1] was < 10 nM. Further, the half-maximal effective concentration (EC50) in test [2] was < 10 nM.

Take `COc1cc(CC(c2c[nH]cn2)c2cccc(C)c2C)cc(OC)c1OC` (stereo not shown) [compound 226]: the inhibition constant Ki in test [1] was < 10 nM. Moreover, the EC50 in test [2] was < 10 nM.

Consider `Cc1cccc(C(Cc2ccc(C(C)c3nnn[nH]3)cc2)c2c[nH]cn2)c1C` (stereo not shown) [compound 227], for which the Ki in test [1] is 10 to 50 nM. In test [2], the EC50 lay in the range of 10 to 50 nM.

With `Cc1cccc(C(Cc2ccc(N(C)C(=O)N(C)C)cc2)c2c[nH]cn2)c1C` (stereo not shown) [compound 228], the Ki in test [1] is < 10 nM. In addition, in test [2], the 50% effective concentration (EC50) was < 10 nM.
